Earlier results in US20070098750A1, “PESTICIDAL COMPOSITIONS CONTAINING ISOPROPYL MYRISTATE AND ANALOGS OF SAME AS A SYNERGIST FOR PLANT ESSENTIAL OILS” (EcoSmart Technologies, Inc., priority 2005, published 2007).

Structure (SMILES): CCCCOCCOCCOCc1cc2c(cc1CCC)OCO2 [PBO, piperonyl butoxide]
- Chronic toxicity finding (even at the lowest doses, 30 mg/kg/day): increased liver weights
- Carcinogenicity finding in animal studies (even treatments as low as 1.2%): hepatocellular carcinomas
